Measured values taken from patent US12103965B2, “Diagnostic kit” (Phoenix Pharmaceuticals, Inc., priority 2011, dated 2024).
Where no end group is shown, it is not given here.

Assays:
[1] = system: rat pituitary adenoma cells, RC-4B/C; assay type: binding
Description: Also, rat pituitary adenoma cells, RC-4B/C cells, were used in the assay of radioligand binding. For the binding displacement, cells were incubated for 30 min with 50 pM 125I-Y0-Phoenixin-20 (amide SEQ. ID NO: 7) in the absence or presence of increasing concentrations of un-labeled Phoenixin-20 amide (amide SEQ. ID NO: 7) or phoenixin-14 amide (amide SEQ. ID NO: 9). Nonspecific binding was defined as total binding in the presence of 1 μM unlabeled Phoenixin-20 amide (amide SEQ. ID NO: 7) or phoenixin-14 amide (amide SEQ. ID NO: 9). After termination of the binding reaction by washing the cells with 1 ml of cold PBS, cells were solubilized with 0.5 ml of 1% SDS, and radioactivity was detected in a gamma counter.

[2] = system: rat pituitary adenoma cells, RC-4B/C; assay: cAMP production in pituitary cells (cAMP Biotrak enzyme immunoassay); assay type: cell-based; conditions: 100 nM peptide, 30 min, in presence of IBMX; PBS-control 100% = 4.94±0.5 pmol/mg protein
Description: Rat pituitary adenoma cells, RC-4B/C (CRL-1903; ATCC, Manassas, VA, USA), were cultured in Dulbecco's Modified Eagle's Medium and Minimum Essential Alpha Medium (Invitrogen, CA, USA) supplemented with 0.01 mM non-essential amino acids, 15 mM HEPES, 2.5 ng/ml epidermal growth factor, and dialyzed, heat-inactivated fetal bovine serum (“FBS”) at 37° C. in a humidified cell incubator containing 5% carbon dioxide (“CO2”). After 2 days of cell cultured in 24 wells plate, cell were equilibrated for 2 hours in serum-free medium and then incubated with 0.1 mM 3-isobutyl-1-methylxanthine (“IBMX”) in serum-free medium 30 min again. Then, cells were challenged with either 100 nM of […]-NH2 (SEQ. ID NO: 7), DVQPPGLKVWSDPFG (SEQ. ID NO: 3), DVQPPGLKVWSDPF-NH2 (SEQ. ID NO: 9), or a PBS-control in the presence of IBMX and incubated for 30 min. After incubation, supernatant medium was then aspirated and the cells in each well were extracted by 70% cold ethanol. Alcohol was evaporated in a vacuum concentrator (PN: AES 2000, Savant, Hicksvile, NY, USA) Thereafter, cAMP content was determined by using a cAMP Biotrak enzyme immunoassay kit (GE healthcare-Amersham, Piscataway, NJ, USA) in accordance with the protocol of the manufacturer.

[3] = system: antibodies raised to AGIVQEDVQPPGLKVWSDPF-NH2 (SEQ. ID NO: 7); assay: RIA/EIA cross-reactivity of anti-phoenixin antibodies; assay type: binding; conditions: RIA or EIA
Description: Homogenates were prepared from heart tissues of adult rats. The supernatant of the rat heart homogenates were passed through C18 column extraction cartridges and P6 gel filtration to further purify native peptide candidates. The immunoreactive fractions as determined by conventional enzyme immunoassay (“EIA”) in which labeled chemically synthesized peptides as described above compete with unlabeled native phoenixin peptide for a limited quantity of the anti-phoenixin peptide antibodies, produced as above described. The label can be biotin complex which by reaction with streptavidin horseradish peroxidase and sequent reaction of the horseradish peroxidase with colormetric or fluorescence substrates can be quantitated. […]
Homogenates of porcine or bovine or rat tissue of heart, lung, kidney, spinal cord, small intestine, liver, pancreas, hypothalamus, spleen, and thymus were prepared as above-described and the resulting fractions were processed by the above-described peptides extraction procedure and were assayed by radio-immunoassay (“[…]”) or Enzyme Immunoassay (EIA) using antibodies raised to […]-NH2 (SEQ. ID NO: 7). […] Protein concentrations were determined by bicinchoninic acid (“BCA”) protein assay in accordance to the protocol of the manufacturer Thermo Scientific, Rockford, Illinois using bovine serum albumin (“BSA”) as a standard. […]

| Substance | IC50 [1] | increase of intracellular cAMP production over the PBS control [2] | cross-reactive with antibodies raised to SEQ. ID NO: 7 [3] |
| --- | --- | --- | --- |
| AGIVQEDVQPPGLKVWSDPF-NH2 [SEQ. ID NO: 7, phoenixin (1-20) amide] | 21.5 nM | greater than two fold and even three-fold |  |
| DVQPPGLKVWSDPF-NH2 [SEQ. ID NO: 9, phoenixin (7-20) amide] | 17.9 nM | greater than two fold and even three-fold | 100% |
| phoenixin (7-21) (DVQPPGLKVWSDPFG; listed as Homo sapiens) [SEQ. ID NO: 3] |  | greater than two fold and even three-fold | less than 0.5% |
